Data published in patent publication US20190241952A1, “TAGGED MULTI-N[…] FOR NUCLEIC ACID SEQUENCING” (Roche Sequencing Solutions, Inc., priority 2016, published 2019).

Experiments:
[1] = test system: exonuclease deficient variant of the Pol6 polymerase; experiment: Displacement assay of single, double, triple and quadruple nucleotide substrates (Example 3); format: biochemical
Description: B. Assay protocol: The assay is a displacement assay using an exonuclease deficient variant of the Pol6 polymerase as described in Example 2, wherein polymerase activity is followed by fluorometrically monitoring the change in FRET between the Cy5 and BHQ labels as the polymerase incorporates the substrates in the DNA extension reaction.
Briefly, an assay solution containing the Pol6 polymerase, the 5′-Cy5-labelled displacement DNA template of SEQ ID NO: 124, and the 3′-BHQ-labelled quencher primer of SEQ ID NO: 124 in 75 mM potassium glutamate (“K-Glu”) is prepared in the absence of the substrate or Mg^2+ ion. A substrate solution is prepared containing either the multi-nucleotide compound to be assayed (i.e., “Y-Tag,” “W-Tag,” or “Q-Tag”), the non-tagged dT6P (“Hexa-PO4), or the tagged single nucleotide substrate, dA6P-dT30-C3 (”Full Tag“) of compound (3d). Also included in the substrate solution are the other three nucleotide-hexaphosphate (”dN6P″) substrates required for polymerase synthesis of a strand complementary to the DNA template (i.e., dA6P, dC6P, dG6P). This substrate solution is added to the polymerase solution. Assays are carried out for each of the test substrates at the following initial concentrations: 0.25 μM, 0.5 μM, 1.0 μM, 2.0 μM, 4.0 μM, and 8.0 μM. Additional K-Glu is added to bring the total K-Glu concentration in the mixture up to 300 mM. The polymerase reaction is then initiated by addition of MgCl2. Final concentrations in the assay reaction mixture are: 100 nM Pol6 enzyme, 50 nM Cy5 displacement DNA template, 40 μM each of other dN6P substrates, 300 mM K-Glu, 25 mM HEPES, 0.2 mM EDTA, 0.05% Triton X-100, 5 mM TCEP, 25 μg/mL BSA, 5 mM MgCl2, pH 7.5.

[2] = test system: α-HL-Pol6 nanopore-polymerase conjugate; format: biochemical

Compound: Cc1cn([C@H]2C[C@H](O)[C@@H](COP(=O)(O)OP(=O)(O)OP(=O)(O)OP(=O)(O)OP(=O)(O)OP(=O)(O)O)O2)c(=O)[nH]c1=O [dT6P]
- Rate ([1]; Initial Conc. Tag 0.25 μM): 0.57 Bases/sec
- Rate ([1]; Initial Conc. Tag 0.5 μM): 2.87 Bases/sec
- Rate ([1]; Initial Conc. Tag 1.0 μM): 3.48 Bases/sec
- Rate ([1]; Initial Conc. Tag 2.0 μM): 3.89 Bases/sec
- Rate ([1]; Initial Conc. Tag 4.0 μM): 4.48 Bases/sec
- Rate ([1]; Initial Conc. Tag 8.0 μM): 4.24 Bases/sec

Compound: (dA6P)2-dT5-(BHEB)-dT14-C3: two dA6P via doubler-linker on tag SEQ ID NO: 109 (DNA ttttttttttttttttttt; two dA6P via doubler linker; BHEB; C3; (5)..(6) bis-hydroxyethylbenzene residue between nucleotide residues 5 and 6; (19)..(19) T-propanol)
- blocking current level [2]: 0.88+/−0.03

Compound: (dC6P)2-dT20-C3: two dC6P via doubler-linker on tag SEQ ID NO: 105 (DNA tttttttttttttttttttt; two dC6P via doubler linker; C3; (20)..(20) T-propanol)
- blocking current level [2]: 0.76+/−0.04

Compound: (dG6P)2-dT6-(Tmp)6-dT8-C3: two dG6P via doubler-linker on tag SEQ ID NO: 107 (DNA TTTTTTTTTTTTTT; two dG6P via doubler linker; Tmp; C3; (6)..(7) 6 thymidine methylphosphonate residues between nucleotide residues 6 and 7; (14)..(14) T-propanol)
- blocking current level [2]: 0.38+/−0.08

Compound: (dT6P)2-dT4-(N3CET)3-dT13-C3: two dT6P via doubler-linker on tag SEQ ID NO: 106 (DNA TTTTTTTTTTTTTTTTT; chemistry not fully specified)
- blocking current level [2]: 0.62+/−0.05
